Assay results reported in ChEMBL document CHEMBL1134378 (J Med Chem, 2001).

How the values were obtained:
[1] = Inhibitory activity against type A neuraminidase (N2); design: species or system unidentified influenza virus
[2] = Inhibitory activity against type A neuraminidase (N9); design: species or system unidentified influenza virus

For `C=C(C)NC(C(CC)CC)[C@@H]1[C@H](O)[C@@H](C(=O)O)C[C@H]1N=C(N)N` (some centres not stated), the “Log IC50” value [1] was -10 and the “Log IC50” value [2] was -10.
